Earlier results, collected in patent publication US20090221462A1, “Fragrance compositions” (priority 2005, published 2009).

Conditions: at 25° C.

O=C(O)C=Cc1ccccc1 [cinnamic acid]
pKa (cis) (cis isomer): 3.89

O=C(O)Cc1ccccc1 [phenylacetic acid]
pKa: 4.28
